Among the data in patent US12539292B2, “BRM targeting compounds and associated methods of use” (Arvinas Operations, Inc., priority 2018, dated 2026) are DC50 and Dmax values, retold here.

SMILES strings stand for the structures. Like-named read-outs stand apart in the source and are kept apart here.

Broadly, the DC50 is the midpoint of the concentration-degradation curve. The Dmax is the greatest extent of degradation seen.

The experiment has as its target T1, BRM (Homo sapiens, UniProt P51531).
T1 construct: In-Cell Western Screen of BRM Degradation in SW1573 Cells; endogenous in cells; host or cells: SW1573
As to the kind of experiment: In-cell Western screen of BRM degradation in SW1573 cells (Dmax and DC50). In kind it is cell-based. On the procedure: In-Cell Western Screen of BRM Degradation in SW1573 Cells
To assess BRM degradation (Dmax and DC50), cells were seeded at 8000/well in 96-well black/clear-bottom plates in 180 μL DMEM growth media (containing 1% pen-strep, 1% HEPES and 10% FBS) per well. Plates were incubated overnight to allow adhesion. The next morning cells were treated by adding 20 μL of 10× compound (1% DMSO) to appropriate wells and returned to incubator for overnight (18-20 hours). The final DMSO concentration was 0.1%.
For processing, the plates were removed from incubator, the media was removed, and immediately 200 μL of cold (4° C.) DPBS was added to all wells. DPBS was then removed, and 50 μL of 4% paraformaldehyde (PFA) in DPBS (4° C.) was added to all wells, and the plates were incubated at room temperature for 20 minutes. PFA was then removed, and 200 μL of TBS-T containing 0.5% Triton X-100 was added to all wells, and the plates were incubated at room temperature for 30 minutes. TBS-T containing 0.5% Triton X-100 was then removed, and 50 μL of Li-Cor blocking solution was added, and the plates were incubated at room temperature for a minimum of one hour.
The next day plates were washed three times with TBS-T, 200 μL per well. Fifty (50) μL of secondary antibody cocktail in LI-COR blocking solution (anti-rabbit_800 nm and anti-mouse_680 nm) was added to all wells (diluted 1:5000). The plates were incubated at room temperature for at least one hour while protected from light. The plates were washed twice with TBS-T, 200 μL per well.
To read each plate TBS-T was removed, and each plate was inverted tapped on a paper towel. The plates were read on the LI-COR Odyssey with default intensity settings of 5.0 for both channels. LI-COR images were analyzed with the in-cell Western feature of Image Studio Lite.

[1] abbreviates: BRM degradation, read-out: BRM DC50.
[2] abbreviates: SW1573, % degraded, when tested at the top concentration of between 0.3 and 10 μM, read-out: BRM Dmax (%).
[3] abbreviates: degradation of BRM, read-out: BRM DC50.
Setting [4] is: target protein degradation, read-out: BRM DC50.
The mark [5] stands for this setting: BRM degradation, SW1573 cells, Table 2D, read-out: *DC50.

T1 sequence (P51531 whole entry): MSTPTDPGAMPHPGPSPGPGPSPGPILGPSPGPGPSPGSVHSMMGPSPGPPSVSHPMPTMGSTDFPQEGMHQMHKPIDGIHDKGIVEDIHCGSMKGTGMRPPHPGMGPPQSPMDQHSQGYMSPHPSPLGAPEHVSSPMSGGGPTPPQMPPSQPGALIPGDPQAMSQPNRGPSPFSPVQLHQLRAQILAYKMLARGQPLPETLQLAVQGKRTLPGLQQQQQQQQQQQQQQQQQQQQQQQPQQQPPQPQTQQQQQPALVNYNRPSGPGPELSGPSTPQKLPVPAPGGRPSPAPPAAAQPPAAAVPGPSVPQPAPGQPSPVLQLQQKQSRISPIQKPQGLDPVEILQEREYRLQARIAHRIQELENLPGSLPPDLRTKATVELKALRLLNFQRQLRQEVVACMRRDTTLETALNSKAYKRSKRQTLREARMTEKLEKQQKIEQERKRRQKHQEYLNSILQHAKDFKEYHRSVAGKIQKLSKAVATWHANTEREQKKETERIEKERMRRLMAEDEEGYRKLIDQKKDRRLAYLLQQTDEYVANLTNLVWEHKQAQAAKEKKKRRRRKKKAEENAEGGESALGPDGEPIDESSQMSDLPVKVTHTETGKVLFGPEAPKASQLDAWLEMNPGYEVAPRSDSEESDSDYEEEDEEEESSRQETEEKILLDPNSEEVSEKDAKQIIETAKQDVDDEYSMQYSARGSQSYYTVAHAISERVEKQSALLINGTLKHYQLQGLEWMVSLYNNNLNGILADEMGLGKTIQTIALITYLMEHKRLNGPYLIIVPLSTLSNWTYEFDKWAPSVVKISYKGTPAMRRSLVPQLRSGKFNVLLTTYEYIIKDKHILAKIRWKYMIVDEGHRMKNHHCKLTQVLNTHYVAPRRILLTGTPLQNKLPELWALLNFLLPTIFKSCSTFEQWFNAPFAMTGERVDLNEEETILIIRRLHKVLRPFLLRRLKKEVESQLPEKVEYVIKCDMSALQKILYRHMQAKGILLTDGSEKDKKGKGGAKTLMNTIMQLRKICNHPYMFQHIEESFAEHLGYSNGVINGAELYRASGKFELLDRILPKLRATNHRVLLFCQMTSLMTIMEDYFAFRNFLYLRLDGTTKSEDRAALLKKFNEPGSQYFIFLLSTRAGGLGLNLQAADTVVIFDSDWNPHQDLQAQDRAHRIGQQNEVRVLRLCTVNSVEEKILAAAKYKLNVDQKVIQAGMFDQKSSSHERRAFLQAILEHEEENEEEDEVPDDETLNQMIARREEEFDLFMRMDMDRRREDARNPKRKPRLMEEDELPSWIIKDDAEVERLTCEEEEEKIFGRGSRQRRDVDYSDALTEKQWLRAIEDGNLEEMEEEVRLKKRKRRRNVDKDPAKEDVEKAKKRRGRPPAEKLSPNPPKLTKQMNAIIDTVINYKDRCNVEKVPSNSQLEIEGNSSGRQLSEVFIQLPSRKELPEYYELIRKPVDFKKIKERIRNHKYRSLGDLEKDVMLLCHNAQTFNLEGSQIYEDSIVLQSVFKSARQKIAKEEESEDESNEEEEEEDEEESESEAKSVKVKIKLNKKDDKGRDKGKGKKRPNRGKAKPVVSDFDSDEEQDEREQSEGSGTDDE

On to `Cc1ncsc1-c1ccc([C@H](CCC#N)NC(=O)[C@@H]2C[C@@H](O)CN2C(=O)[C@@H](c2cc(OCCN3CCC(O[C@H]4C[C@H](Oc5cc(N6C7CCC6CN(c6cc(-c8ccccc8O)nnc6N)C7)ccn5)C4)CC3)no2)C(C)C)cc1` [compound 533, (2S,4R)-1-((2R)-2-(3-(2-(4-((1r,3R)-3-((4-(3-(3-amino-6-(2-hydroxyphenyl)pyridazin-4-yl)-3,8-diazabicyclo[3.2.1]octan-8-yl)pyridin-2-yl)oxy)cyclobutoxy)piperidin-1-yl)ethoxy)isoxazol-5-yl)-3-methylbutanoyl)-N-((S)-3-cyano-1-(4-(4-methylthiazol-5-yl)phenyl)propyl)-4-hydroxypyrrolidine-2-carboxamide], for which the DC50 under setting [1] was below 2.5 nM. Moreover, under setting [2], the Dmax was above 75%.

As for `Cc1ncsc1-c1ccc([C@H](C)NC(=O)[C@@H]2C[C@@H](O)CN2C(=O)[C@@H](c2cc(N3CCN(CCN4CCC(O[C@H]5C[C@H](Oc6cc(N7C8CCC7CN(c7cc(-c9ccccc9O)nnc7N)C8)ccn6)C5)CC4)CC3)no2)C(C)C)cn1` [compound 402, (2S,4R)-1-((2R)-2-(3-(4-(2-(4-((1r,3r)-3-((4-(3-(3-amino-6-(2-hydroxyphenyl)pyridazin-4-yl)-3,8-diazabicyclo[3.2.1]octan-8-yl)pyridin-2-yl)oxy)cyclobutoxy)piperidin-1-yl)ethyl)piperazin-1-yl)isoxazol-5-yl)-3-methylbutanoyl)-4-hydroxy-N-((S)-1-(6-(4-methylthiazol-5-yl)pyridin-3-yl)ethyl)pyrrolidine-2-carboxamide], the Dmax under setting [2] was above 75%. The 50% degradation concentration (DC50) under setting [3] is below 2.5 nM.

Consider `Cc1ncsc1-c1ccc([C@H](C)NC(=O)[C@@H]2C[C@@H](O)CN2C(=O)[C@@H](c2cc(C#CCN3CCC(O[C@H]4C[C@H](Oc5cc(N6C7CCC6CN(c6cc(-c8ccccc8O)nnc6N)C7)ccn5)C4)CC3)no2)C(C)C)cc1` [compound 380, (2S,4R)-1-((2R)-2-(3-(3-(4-((1r,3R)-3-((4-(3-(3-amino-6-(2-hydroxyphenyl)pyridazin-4-yl)-3,8-diazabicyclo[3.2.1]octan-8-yl)pyridin-2-yl)oxy)cyclobutoxy)piperidin-1-yl)prop-1-yn-1-yl)isoxazol-5-yl)-3-methylbutanoyl)-4-hydroxy-N-((S)-1-(4-(4-methylthiazol-5-yl)phenyl)ethyl)pyrrolidine-2-carboxamide], for which, under setting [2], the Dmax was above 75%. Besides, the DC50 under setting [4] was below 2.5 nM.

On to `Cc1ncsc1-c1ccc([C@H](C)NC(=O)[C@@H]2C[C@@H](O)CN2C(=O)[C@H](c2cc(N3CCC(CO[C@H]4C[C@H](Oc5cc(N6C7CCC6CN(c6cc(-c8ccccc8O)nnc6N)C7)ccn5)C4)CC3)no2)C(C)C)cc1` [compound 433, (2S,4R)-1-((2S)-2-(3-(4-(((1r,3S)-3-((4-(3-(3-amino-6-(2-hydroxyphenyl)pyridazin-4-yl)-3,8-diazabicyclo[3.2.1]octan-8-yl)pyridin-2-yl)oxy)cyclobutoxy)methyl)piperidin-1-yl)isoxazol-5-yl)-3-methylbutanoyl)-4-hydroxy-N-((S)-1-(4-(4-methylthiazol-5-yl)phenyl)ethyl)pyrrolidine-2-carboxamide], for which the Dmax under setting [2] is above 75%. In addition, under setting [3], the DC50 lay in the range of 2.5 to 10 nM.

For `Cc1ncsc1-c1ccc([C@H](C)NC(=O)[C@@H]2C[C@@H](O)CN2C(=O)[C@@H](c2cc(OCCN3CCC(CCOc4cc(N5C6CCC5CN(c5cc(-c7ccccc7O)nnc5N)C6)ccn4)CC3)no2)C(C)C)cc1` [compound 554, (2S,4R)-1-((2R)-2-(3-(2-(4-(2-((4-(3-(3-amino-6-(2-hydroxyphenyl)pyridazin-4-yl)-3,8-diazabicyclo[3.2.1]octan-8-yl)pyridin-2-yl)oxy)ethyl)piperidin-1-yl)ethoxy)isoxazol-5-yl)-3-methylbutanoyl)-4-hydroxy-N-((S)-1-(4-(4-methylthiazol-5-yl)phenyl)ethyl)pyrrolidine-2-carboxamide], the Dmax (BRM degradation, SW1573 cells, Table 2D, read-out: **Dmax (%) (% degraded)) was above 75%. Moreover, the DC50 under setting [5] is below 2.5 nM.

Regarding `Cc1ncsc1-c1ccc([C@H](C)NC(=O)[C@@H]2C[C@@H](O)CN2C(=O)[C@H](c2cc(OCC#Cc3ncc(O[C@H]4C[C@H](Oc5cc(N6C7CCC6CN(c6cc(-c8ccccc8O)nnc6N)C7)ccn5)C4)cn3)no2)C(C)C)cn1` [compound 399, (2S,4R)-1-((2S)-2-(3-((3-(5-((1r,3S)-3-((4-(3-(3-amino-6-(2-hydroxyphenyl)pyridazin-4-yl)-3,8-diazabicyclo[3.2.1]octan-8-yl)pyridin-2-yl)oxy)cyclobutoxy)pyrimidin-2-yl)prop-2-yn-1-yl)oxy)isoxazol-5-yl)-3-methylbutanoyl)-4-hydroxy-N-((S)-1-(6-(4-methylthiazol-5-yl)pyridin-3-yl)ethyl)pyrrolidine-2-carboxamide], the DC50 under setting [4] is above 30 nM.

Consider `Cc1ncsc1-c1ccc([C@H](C)NC(=O)[C@@H]2C[C@@H](O)CN2C(=O)[C@@H](c2cc(OCCC3CCN(C[C@H]4C[C@H](Oc5cc(N6C7CCC6CN(c6cc(-c8ccccc8O)nnc6N)C7)ccn5)C4)CC3)no2)C(C)C)cn1` [compound 288, (2S,4R)-1-((2R)-2-(3-(2-(1-(((1r,3R)-3-((4-(3-(3-amino-6-(2-hydroxyphenyl)pyridazin-4-yl)-3,8-diazabicyclo[3.2.1]octan-8-yl)pyridin-2-yl)oxy)cyclobutyl)methyl)piperidin-4-yl)ethoxy)isoxazol-5-yl)-3-methylbutanoyl)-4-hydroxy-N-((S)-1-(6-(4-methylthiazol-5-yl)pyridin-3-yl)ethyl)pyrrolidine-2-carboxamide], for which the DC50 (BRM degradation, SW1573 cells, read-out: DC50) is below 2.5 nM. For the same compound, for the setting “BRM degradation, SW1573 cells, tested at the top concentration of between 0.3 and 10 μM, read-out: Dmax (%) (% degraded)”, the Dmax is above 75%.

Regarding `Cc1ncsc1-c1ccc([C@H](C)NC(=O)[C@@H]2C[C@@H](O)CN2C(=O)[C@H](c2cc(N3CCC(CN4CCC(O[C@H]5C[C@H](N6CCOC7(CCN(c8cc(-c9ccccc9O)nnc8N)CC7)C6)C5)CC4)CC3)no2)C(C)C)cc1` [compound 617, (2S,4R)-1-((S)-2-(3-(4-((4-((1r,3r)-3-(9-(3-amino-6-(2-hydroxyphenyl)pyridazin-4-yl)-1-oxa-4,9-diazaspiro[5.5]undecan-4-yl)cyclobutoxy)piperidin-1-yl)methyl)piperidin-1-yl)isoxazol-5-yl)-3-methylbutanoyl)-4-hydroxy-N-((S)-1-(4-(4-methylthiazol-5-yl)phenyl)ethyl)pyrrolidine-2-carboxamide], the DC50 under setting [5] is above 30 nM.

For `Cc1ncsc1-c1ccc([C@H](C)NC(=O)[C@@H]2C[C@@H](O)CN2C(=O)[C@H](c2cc(N3CCC(O[C@H]4C[C@H](Oc5cc(N6C7CCC6CN(c6cc(-c8ccccc8O)nnc6N)C7)ccn5)C4)CC3)no2)C(C)C)cc1` [compound 403, (2S,4R)-1-((2S)-2-(3-(4-((1r,3S)-3-((4-(3-(3-amino-6-(2-hydroxyphenyl)pyridazin-4-yl)-3,8-diazabicyclo[3.2.1]octan-8-yl)pyridin-2-yl)oxy)cyclobutoxy)piperidin-1-yl)isoxazol-5-yl)-3-methylbutanoyl)-4-hydroxy-N-((S)-1-(4-(4-methylthiazol-5-yl)phenyl)ethyl)pyrrolidine-2-carboxamide], the Dmax under setting [2] was above 75%. In addition, the DC50 under setting [3] was in the range of 2.5 to 10 nM.

For the compound `Cc1ncsc1-c1cnc([C@H](C)NC(=O)[C@@H]2C[C@@H](O)CN2C(=O)[C@@H](c2cc(OCCN3CCC(O[C@H]4C[C@H](Oc5cc(N6C7CCC6CN(c6cc(-c8ccccc8O)nnc6N)C7)ccn5)C4)CC3)no2)C(C)C)cn1` [compound 491, (2S,4R)-1-((2R)-2-(3-(2-(4-((1r,3R)-3-((4-(3-(3-amino-6-(2-hydroxyphenyl)pyridazin-4-yl)-3,8-diazabicyclo[3.2.1]octan-8-yl)pyridin-2-yl)oxy)cyclobutoxy)piperidin-1-yl)ethoxy)isoxazol-5-yl)-3-methylbutanoyl)-4-hydroxy-N-((S)-1-(5-(4-methylthiazol-5-yl)pyrazin-2-yl)ethyl)pyrrolidine-2-carboxamide], under setting [1], the DC50 is below 2.5 nM. Also, under setting [2], the Dmax is above 75%.

`Cc1ncsc1-c1ccc([C@H](C)NC(=O)[C@@H]2C[C@@H](O)CN2C(=O)C(c2cc(OCCN3[C@H](C)C[C@H](O[C@H]4C[C@H](Oc5cc(N6C7CCC6CN(c6cc(-c8ccccc8O)nnc6N)C7)ccn5)C4)C[C@@H]3C)no2)C(C)C)cn1` (stereo partly drawn) [compound 448, (2S,4R)-1-(2-(3-(2-((2S,4S,6R)-4-((1r,3R)-3-((4-(3-(3-amino-6-(2-hydroxyphenyl)pyridazin-4-yl)-3,8-diazabicyclo[3.2.1]octan-8-yl)pyridin-2-yl)oxy)cyclobutoxy)-2,6-dimethylpiperidin-1-yl)ethoxy)isoxazol-5-yl)-3-methylbutanoyl)-4-hydroxy-N-((S)-1-(6-(4-methylthiazol-5-yl)pyridin-3-yl)ethyl)pyrrolidine-2-carboxamide]: the Dmax under setting [2] is above 75%. The 50% degradation concentration (DC50) under setting [4] was below 2.5 nM.
